From patent US6716635B2, “Method for identifying regulators of protein-advanced glycation end product (protein-AGE) formation” (University of Kentucky Research Foundation, priority 2000, dated 2004)

Experiments:
[1] = test system: histone H1 (glycation by ADP-ribose); assay: AGE-fluorescence screening of glycation inhibitors, histone H1 + ADP-ribose, 96 well microtiter plates; type: biochemical, calf; details: for AGE-fluorescence (day 5): 5 days incubation; for inhibition of AGE-fluorescence, in words: 1 to 10 mM, 5 days; for % inhibition: AGE-fluorescence day 5; for AGE-fluorescence (day 0): value (spread)
Protocol: A 96-well, microtiter plate was used to carry out 48 reactions in duplicate. […] A second pair of wells contains the reactants and the known glycation inhibitor aminoguanidine, and functions as a positive control. Histone H1 is commercially available, and can be prepared following the procedures set out in Johns, et al., Biochem J. 92:55-59(1964), which is incorporated by reference herein.
The reaction system is 50 mM potassium phosphate buffer, at pH 7.4 to which 1.5 mg/ml histone H1 and 1.0 mM ADP-ribose were added. Reaction volume was 300 ul. AGE-fluorescence was measured over time, with incubation at 37° C., at 355 nm (ex) and 405 nm (em). Upon comparison to the control, a test compound was deemed potentially positive if AGE-fluorescence was suppressed.
The histone H1 (1.5 mg/ml) was combined with 1 mM ADP-ribose, in […] KH2PO4 buffer (pH 7.4, 37° C., 0.015% NaN3 added, to inhibit microbial growth). This reaction mixture was added, to 96 well microtiter plates. Test compounds were added to the reaction mixture, at concentrations ranging from 1 to 10 mM, in reaction volumes of 300 ul. Texts were run in duplicate.
Accumulated protein damage was determined by measuring AGE-fluorescence, at wavelengths (λex=370 nm; λ em=440 nm. The fluorescence is suppressed in the presence of compounds with inhibitory activity. Assays were read on a conventional microtiter plate, with a filter setting that approached the above conditions (λ ex: 355 nm, λ […]: 405 nm), which is in the range of the broad excitation/emission maxima of AGE compounds.
The fluorescence was measured at the beginning, and after 5 days of incubation.
The known glycation inhibitor aminoguanidine was used as a control.

[2] = test system: histone H1 (cross linking by ADP-ribose); assay: glycation induced cross linking of histone H1, 12% SDS-PAGE, silver staining; type: biochemical, calf; details: aliquots of 5 day incubation mixtures
Protocol: This example describes a secondary screening, to further evaluate compounds which were deemed positive following the assays of examples 1 and 2. Specifically, it will be recalled that each sample was tested in two wells, one of which was tested in example 2, supra. The sample not used was analyzed, via 12% SDS-PAGE, followed by silver staining, in order to visualize protein cross-linking. This serves as an independent measure of glycation caused protein damage. […] To test this, reaction aliquots of the 5 day incubation mixtures, described in Example 1, supra, were assessed on 12% SDS-PAGE. Both untreated histone H1, and the aminoguanidine containing positive control were tested in the same way. All were visualized by silver staining.

[3] = test system: He-Cat (human epidermal keratinocytes); assay: protection against α-dicarbonyl toxicity in keratinocytes, cell count; type: cell-based; details: for protection against growth inhibition by glyoxal: compound 1 mM added 15 minutes prior to glyoxal; for protection against growth inhibition by glyoxal / protection against methylglyoxal induced growth inhibition: 72 hours; for protection against methylglyoxal induced growth inhibition: compound 1 mM added 15 minutes prior to methylglyoxal
Protocol: (§1) Continuously cultured cell lines “He-Cat” (human epidermal keratinocytes), and “CF-3” (human dermal fibroblasts), were cultured under standard conditions, divided biweekly into DMEM containing 10% fetal bovine serum, and were kept in a humidified atmosphere containing 5% CO2 at 37° C. In order to divide the cells, 5% trypsin was used on the keratinocytes, and 1% trypsin was used on the fibroblasts.
(§2) Keratinocytes were seeded at 2×10^4 cells/well, and fibroblasts at 4×10^4 cells/well, using 6 well dishes. The cells were allowed to attach to the plate overnight. Either D-penicillamine or aminoguanidine (1 mM each) was added to the plates 15 minutes prior to addition of glyoxal or methylglyoxal. The α-dicarbonyl was left for 72 hours. Varying concentrations of the α-dicarbonyl were used. Cells were counted with a Coulter counter after 72 hours of stress. Cultures were also run where the glyoxal or methylglyoxal was used without the scavenger. L-alanine was used as a negative control as it was not expected to have protective effect.

[4] = test system: CF-3 (human dermal fibroblasts); assay: protection against α-dicarbonyl toxicity in fibroblasts, cell count; type: cell-based; details: for protection against methylglyoxal induced growth inhibition: compound 1 mM added 15 minutes prior to methylglyoxal, 72 hours
Protocol: as §1, §2

[5] = test system: histone H1 (carbonylation); assay: histone H1 carbonylation by reducing sugars, and interference by compounds; type: biochemical; details: compound 5 mM
Protocol: Both protein cross-linking and protein carbonylation are well established indicia of protein glycation. See Schacter, et al., Free Radic Biol Med. 17:429-437 (1994), incorporated by reference. In brief, following the assays described infra, formation of protein cross-linking was measured on 12% SDS-PAGE, followed by Coomassie and silver staining. Cross-linking was detectable with a high degree of sensitivity, when the reaction between ADP-ribose and histone H1 was carried out at pH 9.0. […] In FIG. 8, the abbreviations “M,” “D”, and “O” represent “monomer,” “dimer” and “oligomer,” respectively. Silver staining is the preferred way of determining the cross linking. Protein carbonlyation was determined via Western blotting. Specifically, AGE-BSA, which had been prepared by incubating BSA with 1.66M glucose, at pH 7.4 for 90 days at 37° C., was recognized after being derivatized with 2.4 dinitrophenlyhydrazine (“DNP”), when tested with antibodies specific for protein bound, DNP epitopes.
A series of experiments were carried out to compare different reducing sugars as glycation agents. In addition to ADP-ribose, ADP-glucose, D-ribose and D-glucose were tested. Briefly, histone H1 was combined with 1 mM of each sugar, and the mixture was incubated at pH 7.4. After 7 days of incubation, reaction aliquots were analyzed on 12% SDS-PACE gels, with silver staining. Results are presented in FIGS. 19A and B. In each of these, lane 1 is a control, with no sugar added, while lanes 2-5 show results using D-glucose, D-ribose, ADP-glucose, and ADP-ribose, respectively. […] The amount of carbonylation caused by ADP-ribose (0.82 mole/mole histone H1), and D-ribose (0.06 mole/mole histone H1) correlated with immunostaining.
In order to determine if the carbonylation of histone H1 by ADP-ribose involved an oxidative pathway, several compounds, known to interfere with glycoxidation of proteins by D-glucose were tested to determine if they interfered with this action by ADP-ribose. The compounds tested included 5 mM DTPA under argon, 5 mM aminoguanidine, 5 mM N^α acetyl L-cysteine, 5 mM mannitol, and 100 units/ml catalase.

[6] = aldehyde trapping, reaction with phenylacetaldehyde followed by HPLC; details: same manner as phenylglyoxal
Protocol: Reactions were carried out in 10 mM phosphate buffer, pH 7.4, at 37° C., and were followed by HPLC analysis. Phenylglyoxal was used at a concentration of 50 mM, while D-penicillamine and aminoguanidine were used at concentrations of 250 mM, and 500 mM. The phenylglyoxal was used as a UV active, α-oxoaldehyde compound. Over the course of the reaction, aliquots were analyzed via HPLC. For reactions involving D-penicillamine, aliquots were taken at 20 second intervals and kept on dry ice for analysis. Initial reaction rates of phenylglyoxal and test compounds were monitored by following the disappearance of phenylglyoxal over time. D-penicillamine trapped phenylglyoxal more than 60 times faster than aminoguanidine. In order to determine if the α-oxo substitution had any impact on the progress of the aldehyde trapping reaction, the reactivity of D-penicillamine with the aldehyde corresponding to phenylglyoxal, i.e., phenylacetaldehyde, was carried out, in the same manner as is described herein.

[7] = α-dicarbonyl trapping, reaction with phenylglyoxal followed by HPLC
Protocol: To learn more about the reaction, D-penicillamine was reacted with phenylglyoxal. In the fashion described supra, phenylgyloxal, at final concentration of 10 mM, and D-penicillamine, at final concentration of 20 mM were reacted in 50 mM KH2PO4 buffer, pH 7.4, at room temperature. Reaction progress was monitored via HPLC analysis of reaction aliquots at 254 nm. After 40 minutes, more than 90% conversion of phenylgloxal peak into a single peak was observed. The product was obtained via preparative HPLC, was lyophilized, and analyzed by H-NMR spectroscopy.
Reactions were carried out in 10 mM phosphate buffer, pH 7.4, at 37° C., and were followed by HPLC analysis. Phenylglyoxal was used at a concentration of 50 mM, while D-penicillamine and aminoguanidine were used at concentrations of 250 mM, and 500 mM. The phenylglyoxal was used as a UV active, α-oxoaldehyde compound. Over the course of the reaction, aliquots were analyzed via HPLC. […] Initial reaction rates of phenylglyoxal and test compounds were monitored by following the disappearance of phenylglyoxal over time. […]
The measured, first order rate constant (k1st) was used to calculate the second order rate constant (k2nd), according to: […]
The calculated second order rate constants were determined at two reactant rates (5:1, and 10:1), and were in good agreement.

[8] = increased concentration of D-penicillamine, methylglyoxal
[9] = treated with 6004M methylglyoxal (so in the source)

Compound | AGE-fluorescence (day 5) ([1]; compound 5 mM) | inhibition of histone H1 cross linking [2] | inhibition of AGE-fluorescence, in words [1] | AGE-fluorescence (day 5) ([1]; compound 1 mM) | % inhibition ([1]; compound 1 mM) | AGE-fluorescence (day 0) ([1]; compound 1 mM) | % inhibition ([1]; compound 5 mM) | AGE-fluorescence (day 0) ([1]; compound 5 mM) | AGE-fluorescence (day 5) ([1]; compound 10 mM) | % inhibition ([1]; compound 10 mM) | AGE-fluorescence (day 0) ([1]; compound 10 mM) | protection against growth inhibition by glyoxal [3] | protection against methylglyoxal induced growth inhibition [3] | protection against methylglyoxal induced growth inhibition [4] | also measured
NC(=O)C1=CN([C@@H]2O[C@H](COP(=O)(O)OP(=O)(O)OC[C@H]3O[C@@H](n4cnc5c(N)ncnc54)[C@H](O)[C@@H]3O)[C@@H](O)[C@H]2O)C=CC1 [NADH] | 31 (0.0) | no inhibitory activity |  |  |  |  |  |  |  |  |  |  |  |  | 
CC(C)(S)C(N)C(=O)O (racemic) [D,L-Penicillamine] | 2.7 (0.0) | more potent than aminoguanidine | the best of the compounds tested | 13 (0.0) | 40% | 1.1 (0.2) | 92% | 1.1 (0.1) | 1.7 (0.0) | 97% | 1.1 (0.1) |  |  |  | 
N=C(N)NN [Aminoguanidine, aminoguanidine, reference compound] | 2.2 (0.0) |  |  | 4.3 (0.2) | 84% | 1.2 (0.1) | 96% | 1.2 (0.1) | 1.8 (0.0) | 97% | 1.3 (0.1) | appeared to protect keratinocytes against growth inhibition by glyoxal | rescued both cell lines from methylglyoxal induced growth inhibition in part | rescued both cell lines from methylglyoxal induced growth inhibition in part | suppression of AGE-fluorescence, primary screen outcome ([1]; test compound 5 mM or limit of solubility, pH 7.4, 37° C.): suppresses the glycation of histone H1 by ADP-ribose; interference with carbonylation of histone H1 by ADP-ribose [5]: slight effect
CC(C)(S)[C@@H](N)C(=O)O [D-Penicillamine, reference compound] | 2.9 (0.3) | more potent than aminoguanidine | the best of the compounds tested | 11 (0.6) | 51% | 1.2 (0.0) | 91% | 1.1 (0.1) | 1.4 (0.1) | 99% | 1.1 (0.0) | appeared to protect keratinocytes against growth inhibition by glyoxal | almost completely blocked methylglyoxal's toxicity | almost completely blocked methylglyoxal's toxicity | efficiency of trapping phenylacetaldehyde relative to phenylglyoxal [6]: about 14 times less efficiently; dose range cyto-protective effect [3, 8]: increased protection; survival [3, 9]: 100%; conversion of phenylglyoxal peak into a single peak ([7]; phenylglyoxal 10 mM, D-penicillamine 20 mM, 50 mM KH2PO4 pH 7.4, room temperature, after 40 minutes): more than 90%; rate of phenylglyoxal trapping relative to aminoguanidine ([7]; second order rate constants, 10 mM phosphate buffer pH 7.4, 37° C.): more than 60 times faster; dose range cyto-protective effect [4, 8]: increased protection; survival [4, 9]: 47%
